Where “and” joins values, the source holds several entries; their conditions need not be identical. Equal values may be shown once.
Assays:
[1] = tested on: NCI-H69 xenograft model (small cell lung cancer); test: Efficacy in NCI-H69 xenograft model: tumor volumes and tumor growth inhibition; format: in vivo, mice
Description: Efficacies of Compound A alone or formulated in nanoparticles were studied with NCI-H69 xenograft model (small cell lung cancer).

[2] = Log P of Compound A; format: physicochemical; details: approximate value
[3] = in vivo; details: rat, 1 mg/kg
Description: In addition, rat plasma concentrations of Compound A and Compound A in NP04 formulation were measured over time.

[4] = Compound A 25 mg/kg days 1 and 8, Day 5
[5] = Compound A 25 mg/kg days 1 and 8, Day 8
[6] = Compound A 25 mg/kg days 1 and 8, Day 16
[7] = Compound A 25 mg/kg days 1 and 8, Day 19
[8] = Compound A 50 mg/kg days 1 and 8, Day 5, 50 mg/kg
[9] = Compound A 50 mg/kg days 1 and 8, Day 8, 50 mg/kg
[10] = Compound A 50 mg/kg days 1 and 8, Day 11, 50 mg/kg
[11] = Compound A 50 mg/kg days 1 and 8, Day 16, 50 mg/kg
[12] = Compound A 50 mg/kg days 1 and 8, Day 19, 50 mg/kg
[13] = Compound A 50 mg/kg days 1 and 8, Day 22, 50 mg/kg
[14] = Compound A 150 mg/kg days 1 and 8, Day 5, 150 mg/kg
[15] = Compound A 150 mg/kg days 1 and 8, Day 8, 150 mg/kg
[16] = Compound A 150 mg/kg days 1 and 8, Day 11
[17] = Compound A 150 mg/kg days 1 and 8, Day 11, 150 mg/kg
[18] = Compound A 150 mg/kg days 1 and 8, Day 16, 150 mg/kg
[19] = Compound A 150 mg/kg days 1 and 8, Day 19, 150 mg/kg
[20] = Compound A 150 mg/kg days 1 and 8, Day 22, 150 mg/kg

logP [2]: ~6.7
AUC(0-inf) [3]: 3.93 µM·h
AUC(0-t) [3]: 3.93 µM·h
Cmax [3]: 11.8 µM
Vd [3]: 0.0786 L/kg
clearance [3]: 4.82 mL/min/kg
half-life [3]: 59.1 min
Structure (SMILES): CCc1c2c(nc3ccc(OC(=O)N4CCC(CCn5ccc6cc(-n7c(O)nnc7-c7cc(C(C)C)c(O)cc7O)ccc65)CC4)cc13)-c1cc3c(c(=O)n1C2)COC(=O)[C@]3(O)CC [Compound A, (S)-4,11-diethyl-4-hydroxy-3,14-dioxo-3,4,12,14-tetrahydro-1H-pyrano[3′,4′:6,7]indolizino[1,2-b]quinolin-9-yl 4-(2-(5-(3-(2,4-dihydroxy-5-isopropylphenyl)-5-hydroxy-4H-1,2,4-triazol-4-yl)-1H-indol-1-yl)ethyl)piperidine-1-carboxylate]
TV Mean ([1]; Compound A 25 mg/kg days 1 and 8, Day 1): 273.4 mm3
TGI % [1, 4]: 2.8%
TV Mean [1, 4]: 390.6 mm3
TGI % [1, 5]: 24.9%
TV Mean [1, 5]: 423.8 mm3
TV Mean ([1]; Compound A 25 mg/kg days 1 and 8, Day 11): 383.2 mm3
TGI % ([1]; Compound A 25 mg/kg days 1 and 8, Day 11, 25 mg/kg): 47%
TGI % [1, 6]: 69.3%
TV Mean [1, 6]: 345.4 mm3
TGI % [1, 7]: 72.2%
TV Mean [1, 7]: 387.4 mm3
TV Mean ([1]; Compound A 25 mg/kg days 1 and 8, Day 22): 510.4 mm3
TGI % ([1]; Compound A 25 mg/kg days 1 and 8, Day 22, 25 mg/kg): 70%
TV Mean ([1]; Compound A 25 mg/kg days 1 and 8, Day 26): 654.4 mm3
TV Mean ([1]; Compound A 25 mg/kg days 1 and 8, Day 31): 866.4 mm3
TV Mean ([1]; Compound A 50 mg/kg days 1 and 8, Day 1): 273.3 mm3
TV individual animal ([1]; Compound A 50 mg/kg days 1 and 8, Day 1, 50 mg/kg): 222 mm3 and 255 mm3
TV Mean ([1]; Compound A 50 mg/kg days 1 and 8, Day 5): 360.1 mm3
TGI % [1, 8]: 10.42% and 10.4%
TV individual animal [1, 8]: 293 mm3
TV Mean ([1]; Compound A 50 mg/kg days 1 and 8, Day 8): 377.9 mm3
TGI % [1, 9]: 33.02% and 33%
TV individual animal [1, 9]: 336 mm3
TV Mean ([1]; Compound A 50 mg/kg days 1 and 8, Day 11): 267.8 mm3
TGI % [1, 10]: 62.98% and 63%
TV individual animal [1, 10]: 202 mm3
TV Mean ([1]; Compound A 50 mg/kg days 1 and 8, Day 16): 166.4 mm3
TGI % [1, 11]: 85.23% and 85.2%
TV individual animal [1, 11]: 136 mm3
TV Mean ([1]; Compound A 50 mg/kg days 1 and 8, Day 19): 116.6 mm3
TGI % [1, 12]: 91.64% and 91.6%
TV individual animal [1, 12]: 103 mm3
TV Mean ([1]; Compound A 50 mg/kg days 1 and 8, Day 22): 125.6 mm3
TGI % [1, 13]: 92.63% and 92.6%
TV individual animal [1, 13]: 91 mm3
TV Mean ([1]; Compound A 50 mg/kg days 1 and 8, Day 26): 165.7 mm3
TV individual animal ([1]; Compound A 50 mg/kg days 1 and 8, Day 26, 50 mg/kg): 116 mm3
TV Mean ([1]; Compound A 50 mg/kg days 1 and 8, Day 31): 318.9 mm3
TV individual animal ([1]; Compound A 50 mg/kg days 1 and 8, Day 31, 50 mg/kg): 256 mm3
TV Mean ([1]; Compound A 150 mg/kg days 1 and 8, Day 1): 273.6 mm^3
TV individual animal ([1]; Compound A 150 mg/kg days 1 and 8, Day 1, 150 mg/kg): 218 mm^3 and 266 mm^3 and 269 mm^3 and 295 mm^3 and 302 mm^3 and 335 mm^3 and 339 mm^3 and 353 mm^3 and 144 mm^3 and 215 mm^3
TV Mean ([1]; Compound A 150 mg/kg days 1 and 8, Day 5): 353 mm^3
TGI % [1, 14]: 12.19% and 12.9%
TV individual animal [1, 14]: 291 mm^3 and 370 mm^3 and 363 mm^3 and 417 mm^3 and 376 mm^3 and 367 mm^3 and 406 mm^3 and 568 mm^3 and 147 mm^3 and 225 mm^3
TV Mean ([1]; Compound A 150 mg/kg days 1 and 8, Day 8): 343.8 mm^3
TGI % [1, 15]: 39.06% and 39.1%
TV individual animal [1, 15]: 275 mm^3 and 362 mm^3 and 281 mm^3 and 413 mm^3 and 354 mm^3 and 393 mm^3 and 397 mm^3 and 595 mm^3 and 168 mm^3 and 200 mm^3
TGI % [1, 16]: 65.44%
TV Mean [1, 16]: 250 mm^3
TGI % [1, 17]: 65.4%
TV individual animal [1, 17]: 189 mm^3 and 236 mm^3 and 217 mm^3 and 318 mm^3 and 264 mm^3 and 322 mm^3 and 285 mm^3 and 436 mm^3 and 99 mm^3 and 134 mm^3
TV Mean ([1]; Compound A 150 mg/kg days 1 and 8, Day 16): 109.7 mm^3
TGI % [1, 18]: 90.26% and 90.3%
TV individual animal [1, 18]: 89 mm^3 and 108 mm^3 and 90 mm^3 and 132 mm^3 and 123 mm^3 and 138 mm^3 and 135 mm^3 and 173 mm^3 and 46 mm^3 and 63 mm^3
TV Mean ([1]; Compound A 150 mg/kg days 1 and 8, Day 19): 77.9 mm^3
TGI % [1, 19]: 94.41% and 94.4%
TV individual animal [1, 19]: 55 mm^3 and 100 mm^3 and 85 mm^3 and 95 mm^3 and 74 mm^3 and 121 mm^3 and 39 mm^3 and 135 mm^3 and 33 mm^3 and 42 mm^3
TV Mean ([1]; Compound A 150 mg/kg days 1 and 8, Day 22): 63.5 mm^3
TGI % [1, 20]: 96.27% and 96.3%
TV individual animal [1, 20]: 46 mm^3 and 64 mm^3 and 72 mm^3 and 85 mm^3 and 66 mm^3 and 89 mm^3 and 71 mm^3 and 68 mm^3 and 27 mm^3 and 47 mm^3
TV Mean ([1]; Compound A 150 mg/kg days 1 and 8, Day 26): 51.8 mm^3
TV individual animal ([1]; Compound A 150 mg/kg days 1 and 8, Day 26, 150 mg/kg): 45 mm^3 and 52 mm^3 and 68 mm^3 (2×) and 61 mm^3 and 83 mm^3 and 77 mm^3 and 41 mm^3 and 4 mm^3 and 19 mm^3
TV Mean ([1]; Compound A 150 mg/kg days 1 and 8, Day 31): 13.5 mm^3
TV individual animal ([1]; Compound A 150 mg/kg days 1 and 8, Day 31, 150 mg/kg): 11 mm^3 and 17 mm^3 and 25 mm^3 and 6 mm^3 and 3 mm^3 and 44 mm^3 and 2 mm^3 and 27 mm^3 and 0 mm^3 (2×)

— patent US20200237746A1, “HSP90 TARGETED CONJUGATES AND PARTICLE FORMULATIONS THEREOF” (TARVEDA THERAPEUTICS, INC., priority 2017, published 2020)
